Experimental data published in patent US20260258054A1, “SMALL MOLECULE FOR TREATMENT OF CANCER OF THE APPENDIX” (The Regents of the University of California, priority 2022, published 2026).
Entries after “also recorded” stand apart in the source; their conditions may differ.

How the values were obtained:
[1] = tested on: KM12 GNAS^R201H organoids; test: 3D organoid growth, KM12 GNAS^R201H organoids; type: cell-based, human; details: H-89 60 μM, 10 days, vs. DMSO control, p=0.004
Method: (§1) FIGS. 4A-4C: GNAS signals through the CAMP-PKA axis. (FIG. 4A), KM12 GNAS^R201H and GNAS^352delG cells were treated with forskolin (0-250 μM) for 15 min. Following the treatment, cells were lysed, and cAMP levels were measured as described in the methods. (FIG. 4B), LS174T GNAS^R201H cells were treated with and without doxycycline, and cAMP levels measured after induction with forskolin (0-2.5 μM) for 15 min. (FIG. 4C), KM12 GNAS^R201H and GNAS^352delG organoids were grown in 3D-matrigel domes and treated with the PKA inhibitor H-89 (60 μM) for 10 days.
FIGS. 5A-5F: β-catenin is a downstream mediator of mutant GNAS signaling. (FIG. 5A), Top 10 hallmark genesets from the KM12 GNAS^KO-pool and LS174T GNAS overexpression datasets were selected and overlapping genesets were plotted. […] (FIG. 5D), Quantification of IHC tumors showing % of cells staining positive of β-catenin. (FIG. 5E), Quantification of the cytoplasmic and nuclear distribution of β-catenin based on IHC staining. […]
(§2) KM12 and LS174T cells were suspended with Matrigel (BD) at 100 cells/μL and plated as 5 μL droplets onto 96-well multi-well culture plates. […] The plates were placed in the cell imaging multi-mode plate reader Cytation™ 5 (Biotek, Winooski, VT) at 37° C. in an atmosphere supplemented with 5% CO2. […] The numbers and total area of organoids were calculated.

[2] = tested on: GNAS KO isogenic paired cell line of SNU-175; test: cAMP-Glo assay, GNAS KO SNU-175 cells; type: cell-based, human; details: mM doses (1-5 mM), 20 hours
Method: (§3) A study was conducted to examine the effect of compound GE3 as a Gαs Inhibitor. Cells were treated with compound GE3 at high (1-5 mM) and low (0-0.5 mM) doses for 20 hours. cAMP levels were measured using the CAMP-Glo™ Assay (Promega). An isogenic paired cell line was created by using CRISPR-Cas9 to knockout (KO) GNAS from the SNU-175 cell line; this model system has been previously described (Oncogene. 2022 August; 41(35):4159-4168).
(§4) The same experimental system was used as above to test lower doses of GE3.

[3] = tested on: GNAS KO SNU-175; test: Incucyte viability (confluence), GNAS KO SNU-175 cells; type: cell-based, human
Method: (§5) Viability was measured over time but determining cell confluence in experimental well using Incucyte Live-Cell Analysis system (Sartorius). JVS-324 was added in increasing concentrations and cell growth monitored for 72 hours. Confluency evaluation was normalized time point zero. An isogenic paired cell line was created by using CRISPR-Cas9 to knockout (KO) GNAS from the SNU-175 cell line; this model system has been previously described (Oncogene. 2022 August; 41 (35):4159-4168).
(§6) Viability was measured over time but determining cell confluence in experimental well using Incucyte Live-Cell Analysis system (Sartorius); two experiments performed. […] (FIG. 26).

[4] = tested on: SNU-175 cells (GNAS^R201C); test: Incucyte viability (confluence), SNU-175 cells; type: cell-based, human
Method: as §5, §6

[5] = tested on: SNU-175 (GNAS^R201C CRC cell line); test: cAMP-Glo assay, SNU-175 cells; type: cell-based, human
Method: as §3, §4

[6] = tested on: MEK regulated genes; test: RNAseq analysis of post-treatment samples from trial NCT03108131 in appendiceal cancer; type: in vivo; details: cobimetinib with atezolizumab, three post-treatment samples
[7] = tested on: LS174T GNAS^R201H cells; test: cAMP levels, LS174T cells overexpressing GNAS^R201H; type: cell-based, human; details: forskolin 0-2.5 μM, 15 min; doxycycline induced
Method: as §1

[8] = tested on: KM12 GNAS^352delG organoids; test: 3D organoid growth, KM12 GNAS knockout (GNAS^352delG) organoids; type: cell-based, human; details: supplementation of organoid cultures with conditioned medium
Method: as §1
FIGS. 5A-5F: β-catenin is a downstream mediator of mutant GNAS signaling. (FIG. 5A), Top 10 hallmark genesets from the KM12 GNAS^KO-pool and LS174T GNAS overexpression datasets were selected and overlapping genesets were plotted. (FIG. 5B), Ratio of pT41/S45 phosphoβ-catenin/β-catenin based on the RPPA analysis results. (FIG. 5C), Immunohistochemistry (IHC) staining of β-catenin in LS174T dox (−) and dox (+) tissues from intraperitoneal mouse tumors. (FIG. 5D), Quantification of IHC tumors showing % of cells staining positive of β-catenin. (FIG. 5E), Quantification of the cytoplasmic and nuclear distribution of β-catenin based on IHC staining. (FIG. 5F), Effect of LF3 (β-catenin inhibitor) on the growth of KM12 (GNAS^R201H and GNAS^352delG) organoids. DMSO (0.2%) was used as control treatment and organoids were cultured for 10 days.
FIGS. 9A-9B: Wnt stimulation rescued growth of GNAS knockout organoids. (FIG. 9A), 3D growth of KM12 GNAS knockout organoids after supplementation with Wnt3a or R-spondin conditioned medium. (FIG. 9B), Quantification of growth by measuring total colony area (%).
as §2, with “plates. The plates were incubated at 37° C. for 15 min.” for “plates.”

O=S(=O)(NCCNC/C=C/c1ccc(Br)cc1)c1cccc2cnccc12 [Compound H-89]
reduced the growth of KM12 organoids [1]: 79%

CCC(CC)COC(=O)[C@H](C)NP(=O)(OC[C@H]1O[C@@H](n2cnc3c(=O)[nH]c(N)nc32)[C@@H]2O[C@@H]21)Oc1ccccc1 (stereo partly drawn) [GE3]
cAMP levels [2]: significantly reduced CAMP | cell growth ([3]; GE3 at mM doses): significantly reduced growth | cell growth ([3]; GE3 by 1 mM): essentially no growth | dose by which growth was comparable to the level in the KO cells [4]: 0.01 mM | cell growth / viability ([4]; GE3, lower doses): dose-dependent fashion; also recorded: decreased viability | cell growth ([4]; GE3 at mM doses): significantly reduced growth | cell growth ([4]; GE3 by 1 mM): essentially no growth | IC50 ([4]; Homo sapiens, read-out: IC50 in viability assay): 105 µM | potency relative to JVS-324 (cAMP) [5]: significantly more potent | dose by which cAMP level was comparable to the level in the KO cells ([5]; 20 hours): 0.01 mM | cAMP levels ([5]; lower doses (0-0.5 mM), 20 hours): dose-dependent fashion; also recorded: inhibits cAMP production | cAMP levels ([5]; mM doses (1-5 mM), 20 hours): significantly reduced CAMP; also recorded: inhibits cAMP production

O=C(c1ccc(F)c(F)c1Nc1ccc(I)cc1F)N1CC(O)([C@@H]2CCCCN2)C1 [cobimetinib]
expression of MEK regulated genes [6]: not down regulated

C=C[C@@]1(C)CC(=O)[C@]2(O)[C@@]3(C)[C@@H](O)CCC(C)(C)[C@@H]3[C@H](O)[C@H](OC(C)=O)[C@@]2(C)O1 [forskolin]
effect of forskolin on basal levels of cAMP [7]: no effect

Wnt3a
rescue of organoid growth of GNAS-knockout cells [8]: rescued organoid growth | rescue of organoid growth of GNAS-knockout cells ([8]; listed as WNT3A): can be rescued | rescue of organoid growth of GNAS-knockout cells ([8]; listed as Wnt3A): rescue GNAS knockout
